First: NS(=O)(=O)c1cc(C(=O)O)cc([N+](=O)[O-])c1Cl
Second: O=C(O)c1ccc(O)c(S(=O)(=O)Cl)c1
The melting point of the first is lower: 143 to 147 °C for the first, 189 to 191 °C for the second.

First: CN(C)S(=O)(=O)CC(=O)O
Second: CN(C)C(=O)Nc1cccc(C(=O)O)c1
The melting point of the first is lower: 130 to 132 °C for the first, 209 to 211 °C for the second.

First: Nc1nc2cc(Br)ccc2o1
Second: Nc1cc(Br)ccc1-n1cccn1
The melting point of the first is higher: 172 to 174 °C for the first, 69 to 71 °C for the second.

First: O=c1c(Cl)c(Cl)cnn1-c1ccc(S(=O)(=O)Cl)cc1
Second: Cc1ccc(-n2nc(C)cc2N)cc1
The melting point of the first is higher: 144 to 146 °C for the first, 118 to 120 °C for the second.

First: Cc1cccc2cc(C(=O)O)[nH]c12
Second: CCOC(=O)c1cc2cc(C(=O)O)ccc2[nH]1
The melting point of the first is lower: 169 to 175 °C for the first, 247 to 249 °C for the second.

First: Cc1ccc(CNC(=O)c2nnc(CCl)s2)cc1
Second: Clc1nnc(-c2cccc3ncccc23)s1
The melting point of the first is higher: 153 to 155 °C for the first, 143 to 145 °C for the second.

First: CCOC(=O)CCOc1ccc(C(C)=O)cc1
Second: COc1ccccc1OCCC(=O)O
The melting point of the first is lower: 55 to 57 °C for the first, 133 to 135 °C for the second.

First: CCN(CC)CCn1c(N)nc2ccccc21
Second: Nc1cc(C2CC2)nn1-c1ccccc1
The melting point of the first is lower: 129 to 131 °C for the first, 134 to 136 °C for the second.

First: CC1=CC(=O)N(c2ccccc2C(=O)O)C1=O
Second: COc1ccc2nc(C)c(C(=O)O)cc2c1
The melting point of the first is lower: 163 to 165 °C for the first, 221 to 223 °C for the second.

Compared with `O=S(=O)(c1ccc2oc(S)nc2c1)N1CCCCC1`, `COc1cc(C=O)ccc1Oc1ccc(S(=O)(=O)N2CCCCC2)cc1[N+](=O)[O-]` is higher in melting point: 139 to 141 °C for the first, 173 to 175 °C for the second.

Compared with `O=C(O)c1nn(-c2ccc(F)cc2)c2c1CCCCC2`, `O=C(O)c1cnn(-c2ccc(Cl)cc2Cl)c1` is higher in melting point: 167 to 169 °C for the first, 246 to 248 °C for the second.

`O=C(O)CCC(=O)c1cccc(F)c1` and `O=C(O)CSCC(=O)c1ccccc1` cannot be ordered by melting point: 94 to 96 °C for the first, 95 to 97 °C for the second.

First: COc1cccc2c1C(=O)CC2
Second: CCS(=O)(=O)Nc1cc(Br)ccc1OC
The melting point of the first is lower: 99 to 102 °C for the first, 105 to 107 °C for the second.

First: Cn1cc(C(=O)O)ccc1=O
Second: CCc1ccc(C(=O)O)o1
The melting point of the first is higher: 236 to 238 °C for the first, 89 to 91 °C for the second.

First: Nc1ccc(Sc2ccccc2)c(Cl)c1
Second: N#Cc1cccc(COc2ccc(N)cc2F)c1
The melting point of the first is lower: 55 to 57 °C for the first, 69 to 71 °C for the second.

Compared with `COc1ccccc1N(CCC#N)C(=O)C(C)Cl` (stereo unspecified), `COc1cccc(C(C=O)C=O)c1` is lower in melting point: 71 to 73 °C for the first, 62 to 64 °C for the second.

First: O=C(Nc1ccccn1)c1cc2ccccc2cc1O
Second: O=c1c2ccccc2nc(S)n1Cc1ccc(Cl)cc1
The melting point of the first is higher: 236 to 238 °C for the first, 221 to 223 °C for the second.

First: Fc1ccccc1Cc1nnc(S)o1
Second: Nc1ccccc1CSc1ccc(C(F)(F)F)cn1
The melting point of the first is higher: 134 to 136 °C for the first, 74 to 76 °C for the second.

First: COc1ccc(N)cc1NC(=O)C1CCCCC1
Second: COc1cc2c(cc1OC)CN(C(N)=O)CC2
The melting point of the first is lower: 147 to 149 °C for the first, 198 to 200 °C for the second.

Compared with `CCCn1c(S)nnc1-c1ccncc1`, `Nc1cc(-c2cccs2)nn1CCO` is lower in melting point: 258 to 260 °C for the first, 155 to 157 °C for the second.

Compared with `COc1ccc(Cl)cc1-c1nnc(N)o1`, `Nc1ncncc1-c1ccc(Cl)cc1` is lower in melting point: 201 to 203 °C for the first, 195 to 197 °C for the second.

Compared with `Cn1c(Cl)cnc1CC#N`, `Cc1cc(C)c2c(N)c(C(=O)O)sc2n1` is higher in melting point: 142 to 144 °C for the first, 145 to 147 °C for the second.

First: CCOC(=O)c1csc(NC2CC2)n1
Second: CCOC(=O)C(=O)NN
The melting point of the first is higher: 89 to 91 °C for the first, 39 to 41 °C for the second.

First: NC(C(=O)O)(c1cccc(F)c1)C(F)(F)F (stereo unspecified)
Second: COC(=O)C(N)c1ccc(F)cc1F (stereo unspecified)
The melting point of the first is higher: 131 to 133 °C for the first, 39 to 41 °C for the second.

First: CCSc1ccc([N+](=O)[O-])cc1C(=O)O
Second: COC(=O)c1cc([N+](=O)[O-])c[nH]c1=O
The melting point of the first is lower: 189 to 191 °C for the first, 254 to 256 °C for the second.

Compared with `Cc1ccc(SCCC(=O)O)cc1C`, `CC(C)Oc1ccc(S(=O)(=O)N2CCOCC2)cc1N` is higher in melting point: 35 to 37 °C for the first, 149 to 151 °C for the second.

First: Nc1nnn[nH]1
Second: CC(C)c1ccc(S(=O)(=O)c2ccc(NN)cc2)cc1
The melting point of the first is higher: 200 to 204 °C for the first, 191 to 193 °C for the second.

First: Cc1ccc(S(=O)(=O)OC2CCCC2c2ccccc2)cc1 (stereo unspecified)
Second: CCCC1(CCC)NC(=O)NC1=O
The melting point of the first is lower: 65 to 67 °C for the first, 205 to 207 °C for the second.
